90 compounds from PubChem BioAssay AID2305 (GlaxoSmithKline (GSK), 2010) can be followed below.

In this test the test system is P. falciparum 3D7 growth, pLDH absorbance. Description: P. falciparum 3D7 growth inhibition, dose response, strain 3D7 (AID 2305).

The structures appear in SMILES notation. pIC50: −log10 of the molar value.

For orientation: pIC50 means −log10 of the IC50, conventionally taken in molar units. A higher pIC50 goes with a low IC50. `Cn1cncc1C(=O)Nc1ccc(-c2ccc(-c3nc4ccc(C(F)(F)F)cc4[nH]3)cc2)cc1` had a pIC50 of 6.25.
With `CN1CCN(CCNc2c3ccccc3nc3c2ccc2ccccc23)CC1`, the pIC50 is 6.21.
As for `Cc1ccc(-c2[nH]n3c(=O)c4c(nc3c2C)CCCC4)cc1`, the pIC50 is 6.66.
Consider `COc1cc(-c2nnc(SCC(=O)Nc3cc(C)on3)n2C)cc(OC)c1O`, for which the pIC50 was 6.74. This pIC50 and that of the compound before are within 0.2 log units of each other.
With `N#Cc1ccc(CN2CCC(Oc3ccc(NC(=O)c4ccco4)cc3Cl)CC2)cc1` the figure was 6.42.
With `O=C(Nc1ccc(C(F)(F)F)cc1)c1ccc(S(=O)(=O)NC2CCCN(CC3CCCCC3)C2)cc1` (stereo not given) the figure was 6.14.
In turn, `Cc1cc(C(=O)Nc2ccc3c(ccn3C3CCCN(Cc4ccc(C(F)(F)F)cc4F)CC3)c2)no1` (stereo not given) showed a pIC50 of 6.12.
`Cc1csc2nc(-c3ccccn3)nc(Nc3ccncn3)c12` had a pIC50 of 6.10.
With `COc1ccc(CNCc2ccc(-c3cccc(-c4nc5ccc(F)cc5[nH]4)c3)cc2)cc1` the figure was 6.70; with `COc1ccc2c(NN=Cc3ccncc3)ccnc2c1`, 6.02; with `Cc1cc(OCCCNc2nc(NCCc3ccc(O)cc3)nc(N3CCNCC3)n2)c(Cl)c(C)c1Cl`, 6.02.
In turn, `COc1cc(Nc2nccc(N3CCC(NC(=O)Nc4ccc5c(c4)OCO5)C3)n2)cc(OC)c1OC` (stereo not given) showed a pIC50 of 6.12.
To `N=C(N)c1ccc(NN=Cc2ccc(Oc3ccc(C(=N)N)cc3)cc2)cc1` belongs 7.05.
Compound `Cc1ccc(Nc2nc(N)c3ccccc3n2)cc1` had a pIC50 of 6.08.
With `Cc1cc2c(NC(=O)NC3CCN(Cc4ccc(Cl)c(Cl)c4)CC3)cccc2cn1` the figure was 6.17; with `COc1ccc(-c2cccc(NC(=O)c3cccc(Cl)c3)c2)cc1CN1CCC(O)CC1`, 6.10.
Take `CC[C@H](C)CNC(=O)c1cncc(-c2cccc(CNC3Cc4ccccc4C3)c2)c1`: the pIC50 is 6.23.
To `Cc1cccc2[nH]c(-c3ccc(-c4cccc(CN5CCC(CO)CC5)c4)s3)nc12` belongs 6.03; to `COC(=O)c1ccc2nc(-c3cc(-c4cccc(-c5ccccc5)c4)cnc3N)[nH]c2c1`, 6.68; to `c1ccc(-c2ccc3c(Nc4ccc5[nH]ccc5c4)ccnc3c2)nc1`, 6.03.
`Cc1cc(N2CCCC2)nc(Nc2ccc(NC(=O)c3ccc(Br)o3)cc2)n1` had a pIC50 of 6.21.
The compound `CCOC(=O)c1ccc(NC(=O)Nc2ccc(Cn3ncc(N4CCCNCC4)c(Cl)c3=O)cc2)cc1` showed a pIC50 of 6.36.
`COc1ccc(-c2cccc(NC(=O)c3cccc(C#N)c3)c2)cc1CN1CCCC1` had a pIC50 of 6.12. This pIC50 is 0.24 log units lower than that of the compound before.
With `CC(C)c1ccc(NC(=O)c2ccc(C(=O)NC3CCN(Cc4ccsc4)C3)cc2)cc1` (stereo not given) the figure was 5.99.
The compound `CCNc1cc(C)nc(Nc2ccccc2)n1` gave a pIC50 of 6.06.
To `Cc1cc(NN=Cc2cccc(F)c2)c2cc(F)ccc2n1` belongs 6.32; to `CCCc1cc2c3c(N)nc(N)nc3ccc2n1CC`, 7.30; to `CCCC(C)C(=O)N1CCOC(COCc2cccc(C(F)(F)F)c2)(c2ccc(Cl)cc2)C1` (stereo not given), 6.40.
For the compound `Cc1cc(N2CCC(NS(=O)(=O)c3ccc(F)cc3)CC2)nc(Nc2cccc(C#N)c2)n1`, the pIC50 was 6.19.
For `O=C(Nc1cccc(CN2CCCN(CCc3ccccc3)CC2)c1)c1ccc(Cl)c(Cl)c1`, the pIC50 is 6.02.
For `O=C(c1ccc(F)cc1)N1CCOC(CCN2CCC(c3ccccc3)CC2)(c2ccc(Cl)c(Cl)c2)C1` (stereo not given), the pIC50 was 6.12.
To `NS(=O)(=O)c1cncc(-c2ccc3nccc(-c4cn[nH]c4)c3n2)c1` belongs 6.28; to `Cn1cncc1-c1ccc2ncnc(Nc3ccc4c(cnn4Cc4ccccc4)c3)c2c1`, 6.74; to `CC[C@H]1CN2CCc3cc(OC)c(OC)cc3[C@@H]2C[C@@H]1C[C@H]1NCCc2c1cc(OC)c(O)c2Cl`, 6.85.
`CC(C)C[C@@H]1C(=O)N[C@H](C2Cc3ccccc3C2)C(=O)N1[C@@H](C(=O)O)c1ccc(F)cc1F` gave a pIC50 of 6.08.
With `COc1ccc(O)cc1/C=N/Nc1ccnc2cc(Cl)ccc12` the figure was 6.27; with `Cc1cc(-c2nc3ccc(CN4CCN(C)CC4)cc3[nH]2)nn1Cc1cc(Cl)ccc1OCc1ccccc1`, 5.95.
For the compound `N#Cc1ccc2c(c1)CN(CCC1CCC(NC(=O)c3cc4cc(OC(F)(F)F)ccc4[nH]3)CC1)CC2` (stereo not given), the pIC50 is 6.11.
To `N#Cc1cncc(-c2nc3c(N4CCC(N5CCCC5)CC4)cccc3n2CCNCc2ccccc2)c1` belongs 6.06.
With `CNC(=O)C1Cc2c([nH]c3cc(Cl)ccc23)C2(CCN(CCc3ccccc3)CC2)N1` (stereo not given) the figure was 6.03; with `COc1ccc2nc(-c3cccc(C)n3)nc(Nc3ccncc3)c2c1`, 6.17.
With `COc1ccc(OC)c2c1CCN(CCN1CCC(C(=O)Nc3ccc(C(=O)Nc4ccc(Cl)cc4)cc3)CC1)C2` the figure was 6.24; with `Cc1ccn2cc(-c3ccc(NC(=O)c4ccc(Br)o4)cc3)nc2c1`, 6.13; with `O=C(Nc1ccc(CCNCc2ccccc2)cc1)Nc1ccc(OC(F)(F)F)cc1`, 6.24.
As for `CCOc1cc(Cc2cnc(N)nc2N)cc(OC)c1OC`, the pIC50 is 6.04. This pIC50 is 0.20 log units lower than that of the compound before.
With `CC(C)(Cc1ccc(Cl)cc1)NCCCCCCNCCc1ccc(O)c(O)c1` the figure was 5.92; with `Clc1ccc(CNc2nc(NCCc3cnc[nH]3)nc(NC3CCCCC3)n2)cc1`, 6.68; with `CCc1cc(NC(=O)Nc2ccnc3ccccc23)ccc1OC`, 6.85.
To `O=C(C=Cc1ccc(Cl)c(Cl)c1)NCCCCCN1CCC(CCNC(=O)/C=C/c2ccccc2)CC1` belongs 6.11.
With `Cc1cc(N(C)C)nc(Nc2ccc(NS(=O)(=O)c3ccccc3)cc2)n1` the figure was 5.87; with `N#Cc1ccc(C(=O)Nc2ccc(Cl)c(N3CCN(CCc4ccccc4)CC3)c2)cc1`, 6.03.
As for `COc1cc2nc(NCCc3ccccc3)nc(NCc3cc(C)no3)c2cc1OC`, the negative-log IC50 (pIC50) was 6.62. This pIC50 lies 0.59 log units higher than the previous one.
With `CC(C)(C)c1ccc(-c2cc(C(=O)N[C@@H](CO)C(=O)O)on2)cc1` (tested in a mixture with another compound) the figure was 6.01.
The compound `Cc1cc(N2CCCC2)nc(Nc2ccc(NC(=O)c3ccccc3F)cc2)n1` had a pIC50 of 6.04.
Take `CS(=O)(=O)NCCCNCc1cccc(-c2cccc(-c3nc4ccc(C(F)(F)F)cc4[nH]3)c2)c1`: the pIC50 was 6.33. Against the preceding compound, the pIC50 is 0.29 log units higher.
Regarding `COc1cc2nc(N3CCN(c4nc(N)c5cc(OC)c(OC)cc5n4)CC3)nc(N)c2cc1OC`, the pIC50 is 6.82.
Regarding `CN1CCC(NCc2ccc(-c3cccc(-c4nc5ccccc5[nH]4)c3)cc2)CC1`, the negative-log IC50 (pIC50) is 6.89.
As for `O=C(/C=C/c1ccc(Cl)c(Cl)c1)NCCCCCN1CCC(NC(=O)c2ccc([N+](=O)[O-])cc2)CC1`, the pIC50 was 6.17.
To `COc1ccc(-n2ccnc2SCC(=O)Nc2cc(C(F)(F)F)ccc2Cl)c(OC)c1` belongs 7.40; to `CN1CCN(c2ccnc3ccc(NC(=O)Nc4ccc(Cl)c(Cl)c4)cc23)CC1`, 6.06.
To `CN1CCN(Cc2ccc(-c3ccc4c(Nc5ccc(F)cc5Cl)ccnc4c3)o2)CC1` belongs 6.85.
`COc1ccc2c(OC)c(CNCCCCCCNCc3ccc4cc(OC)ccc4c3OC)ccc2c1` gave a pIC50 of 6.04. This pIC50 is 0.81 log units lower than that of the compound before.
With `O=C(NC1CCN(c2ccnc3cc(Cl)ccc23)C1)c1cccc(F)c1` (stereo not given) the figure was 6.74; with `CC(Cc1ccc(CN(CC(N)=O)Cc2ccc(CC(C)NCCc3cccc(Cl)c3)cc2)cc1)NCCc1cccc(Cl)c1` (stereo not given), 6.17.
Consider `COc1cc2nc(N3CC(C)N(C(=O)Cc4ccc(-c5ccccc5)cc4)C(C)C3)nc(N)c2cc1OC` (stereo not given), for which the pIC50 was 6.10.
Regarding `O=c1cc(NCCCNC(CNCCc2ccccc2)c2cc(Br)cc(Br)c2)[nH]c2ccccc12` (stereo not given), the pIC50 is 6.07. The pIC50 values of the last two compounds are within 0.2 log units of each other.
In the case of `Cc1c(Cl)cccc1S(=O)(=O)Nc1cccc(CCN2CCC(N3CCCCC3)CC2)c1`, the negative-log IC50 (pIC50) is 6.08.
Compound `O=C(Nc1ccc(Cl)c(Cl)c1)N(Cc1ccccc1Br)C1CCNCC1` gave a pIC50 of 5.99.
With `CCOc1cccc(C2c3c(oc4ccccc4c3=O)C(=O)N2CCN(CC)CC)c1` (stereo not given) the figure was 6.12; with `CN(C)CCOc1ccc2c(c1)CN(C)CC2c1ccccc1` (stereo not given), 5.95.
To `O=C(Nc1ccc(F)cc1)NC1CCN(c2ccnc3ccccc23)C1` (stereo not given) belongs 6.06; to `Fc1ccc(-c2cc3ncnc(N4CCN(CCN5CCCC5)CC4)c3s2)cc1`, 6.13.
With `CC1CN(Cc2csc(Nc3ccccc3)n2)CC(C)O1` (stereo not given) the figure was 5.99; with `O=C(Nc1cccc(C(F)(F)F)c1)Nc1cc(F)c(F)cc1Cl`, 5.71; with `Cc1ccc(NC(=O)c2ccc3ncccc3c2)cc1OC1CCN(Cc2ccc(F)cc2)C1` (stereo not given), 5.87.
The compound `N#CCCN1CCN(Cc2cccc(-c3ccc(-c4nc5ccc(C(F)(F)F)cc5[nH]4)cc3)c2)CC1` showed a pIC50 of 6.13.
To `Brc1cnc(NC2=NCCN2)c(Br)c1` belongs 6.47.
With `CCCCCCNC(=O)C1Cc2c([nH]c3ccc(Br)cc23)C2(CCN(Cc3ccccc3)CC2)N1` (stereo not given) the figure was 6.14; with `O=C(Nc1ccc2ccccc2c1)N(CCCn1ccnc1)Cc1csc(-c2ccc(CNCc3ccccc3)cc2)n1`, 6.13; with `Cc1ccc(O)cc1Nc1ccnc2cc(-c3ccccc3)ccc12`, 5.97.
To `FC(F)(F)c1cnc(Sc2nnc(-c3ccncc3)o2)c(Cl)c1` belongs 6.57; to `CCN1CCN(Cc2ccc3nc(-c4cc(C)n(Cc5cc(Cl)ccc5OCc5ccccc5)n4)[nH]c3c2)CC1`, 6.11.
Take `N#Cc1ccc(-c2ccc(C(=O)NCCCCN3CCC(c4ccc5c(c4OCc4ccccn4)CCCC5)CC3)cc2)cc1`: the negative logarithm of the IC50 (pIC50) was 6.09.
For `CCc1c(C(=O)NC2CCC(N3CCC(c4ccccc4OC)CC3)CC2)[nH]c2ccc(Br)cc12` (stereo not given), the pIC50 is 5.95.
Consider `CC(C)(C)c1nn(-c2ccccc2)c2[nH]c(=O)c(CNC3CCCC3)cc12`, for which the pIC50 is 6.07. This pIC50 and that of the compound before are within 0.2 log units of each other.
With `COc1cc2nc(C)nc(Nc3ccc(Cc4ccccc4)cc3)c2cc1OC` the figure was 6.14; with `COc1ccc(N2C(N)=NC(N)=NC2(C)C)cc1OC`, 6.51; with `CC(=NNC(=S)NC(C)(C)C)c1ccccn1`, 6.80.
`O=C(NCCN1CCCC1)N1CCCN(c2ncnc3cc(-c4ccc(Cl)cc4)sc23)CC1` showed a pIC50 of 6.04. Against the preceding compound, the pIC50 is 0.76 log units lower.
To `CC1(C)N=C(N)N=C(N)N1c1cccc(C(F)(F)F)c1` belongs 8.00.
